Measured values reported in the NIST ThermoML archive (doi:10.1021/je800635g).

Assay: xn = mol fraction of the nth substance listed
Details: Liquid, Falling or rolling sphere viscometry

Cc1ccc(C)cc1 [1,4-dimethylbenzene] + CC(=O)O
viscosity [mPa·s]
Details | x1 = 0.1001 | x1 = 0.1997 | x1 = 0.3001 | x1 = 0.3997 | x1 = 0.5 | x1 = 0.6002 | x1 = 0.6988 | x1 = 0.7994 | x1 = 0.8994
313.15 K, 100 kPa | 0.725 | 0.63 | 0.571 | 0.522 | 0.52 | 0.514 | 0.508 | 0.505 | 0.499
313.15 K, 800 kPa | 0.731 | 0.635 | 0.576 | 0.527 | 0.524 | 0.519 | 0.512 | 0.509 | 0.503
313.15 K, 1600 kPa | 0.737 | 0.641 | 0.583 | 0.532 | 0.53 | 0.524 | 0.517 | 0.514 | 0.508
313.15 K, 2400 kPa | 0.743 | 0.647 | 0.585 | 0.537 | 0.535 | 0.529 | 0.522 | 0.519 | 0.513
313.15 K, 3200 kPa | 0.749 | 0.653 | 0.591 | 0.543 | 0.541 | 0.534 | 0.527 | 0.525 | 0.518
333.15 K, 100 kPa | 0.587 | 0.508 | 0.459 | 0.424 | 0.419 | 0.418 | 0.415 | 0.412 | 0.407
333.15 K, 800 kPa | 0.592 | 0.514 | 0.464 | 0.429 | 0.424 | 0.423 | 0.419 | 0.416 | 0.411
333.15 K, 1600 kPa | 0.598 | 0.52 | 0.47 | 0.434 | 0.429 | 0.428 | 0.424 | 0.422 | 0.416
333.15 K, 2400 kPa | 0.605 | 0.526 | 0.476 | 0.44 | 0.435 | 0.433 | 0.429 | 0.427 | 0.421
333.15 K, 3200 kPa | 0.611 | 0.532 | 0.482 | 0.445 | 0.44 | 0.438 | 0.435 | 0.432 | 0.427
353.15 K, 100 kPa | 0.481 | 0.419 | 0.378 | 0.351 | 0.347 | 0.342 | 0.341 | 0.339 | 0.339
353.15 K, 800 kPa | 0.487 | 0.425 | 0.384 | 0.356 | 0.352 | 0.347 | 0.346 | 0.343 | 0.344
353.15 K, 1600 kPa | 0.493 | 0.431 | 0.39 | 0.361 | 0.357 | 0.352 | 0.351 | 0.349 | 0.349
353.15 K, 2400 kPa | 0.499 | 0.437 | 0.396 | 0.367 | 0.363 | 0.357 | 0.356 | 0.354 | 0.354
353.15 K, 3200 kPa | 0.505 | 0.444 | 0.402 | 0.372 | 0.368 | 0.363 | 0.361 | 0.359 | 0.359
373.15 K, 100 kPa | 0.399 | 0.353 | 0.314 | 0.297 | 0.293 | 0.289 | 0.287 | 0.285 | 0.288
373.15 K, 800 kPa | 0.405 | 0.359 | 0.319 | 0.302 | 0.298 | 0.293 | 0.291 | 0.289 | 0.293
373.15 K, 1600 kPa | 0.412 | 0.365 | 0.326 | 0.307 | 0.303 | 0.299 | 0.296 | 0.294 | 0.298
373.15 K, 2400 kPa | 0.418 | 0.372 | 0.332 | 0.313 | 0.309 | 0.304 | 0.302 | 0.3 | 0.303
373.15 K, 3200 kPa | 0.424 | 0.378 | 0.338 | 0.319 | 0.315 | 0.309 | 0.307 | 0.305 | 0.308
393.15 K, 800 kPa | 0.34 | 0.294 | 0.269 | 0.252 | 0.253 | 0.249 | 0.256 | 0.254 | 0.254
393.15 K, 1600 kPa | 0.345 | 0.3 | 0.275 | 0.258 | 0.258 | 0.254 | 0.261 | 0.258 | 0.259
393.15 K, 2400 kPa | 0.352 | 0.306 | 0.281 | 0.263 | 0.264 | 0.26 | 0.266 | 0.264 | 0.265
393.15 K, 3200 kPa | 0.358 | 0.313 | 0.287 | 0.269 | 0.27 | 0.265 | 0.272 | 0.27 | 0.27
413.15 K, 800 kPa | 0.294 | 0.255 | 0.237 | 0.221 | 0.217 | 0.218 | 0.222 | 0.219 | 0.22
413.15 K, 1600 kPa | 0.3 | 0.26 | 0.243 | 0.227 | 0.217 | 0.223 | 0.227 | 0.225 | 0.225
413.15 K, 2400 kPa | 0.307 | 0.265 | 0.249 | 0.233 | 0.228 | 0.229 | 0.232 | 0.23 | 0.231
413.15 K, 3200 kPa | 0.313 | 0.271 | 0.255 | 0.239 | 0.233 | 0.234 | 0.237 | 0.235 | 0.236
433.15 K, 800 kPa | – | 0.223 | 0.208 | 0.196 | 0.195 | 0.194 | 0.194 | 0.191 | 0.194
433.15 K, 1600 kPa | 0.26 | 0.228 | 0.213 | 0.202 | 0.201 | 0.199 | 0.199 | 0.197 | 0.199
433.15 K, 2400 kPa | 0.267 | 0.233 | 0.219 | 0.208 | 0.206 | 0.205 | 0.204 | 0.202 | 0.204
433.15 K, 3200 kPa | 0.273 | 0.239 | 0.226 | 0.213 | 0.212 | 0.21 | 0.209 | 0.208 | 0.209
453.15 K, 800 kPa | 0.221 | 0.196 | 0.181 | 0.177 | 0.174 | 0.173 | 0.173 | 0.17 | 0.17
453.15 K, 1600 kPa | 0.227 | 0.201 | 0.186 | 0.183 | 0.18 | 0.179 | 0.178 | 0.176 | 0.175
453.15 K, 2400 kPa | 0.233 | 0.206 | 0.192 | 0.188 | 0.185 | 0.184 | 0.183 | 0.181 | 0.18
453.15 K, 3200 kPa | 0.24 | 0.211 | 0.198 | 0.194 | 0.191 | 0.189 | 0.188 | 0.187 | 0.184
473.15 K, 1600 kPa | 0.19 | 0.17 | 0.162 | 0.162 | 0.161 | 0.16 | 0.16 | 0.157 | 0.159
473.15 K, 2400 kPa | 0.196 | 0.175 | 0.168 | 0.167 | 0.166 | 0.165 | 0.164 | 0.162 | 0.164
473.15 K, 3200 kPa | 0.202 | 0.181 | 0.173 | 0.173 | 0.171 | 0.17 | 0.169 | 0.168 | 0.168
